Read-outs that look alike come from different tables or passages of the source.
Columns and labels:
JAK3 = JAK3 (Homo sapiens (Human), UniProt P52333); test: Omnia assay for potency assessment against the active form of JAK3; format: biochemical; details: read-out: JAK3 Inhibition
Description: Briefly, 10× stocks of EGFR-WT (PV3872) from Invitrogen and EGFR-T790M/L858R (40350) from BPS Bioscience, San Diego, Calif., 1.13×ATP (AS001A) and appropriate Tyr-Sox conjugated peptide substrates (KCZ1001) were prepared in 1× kinase reaction buffer consisting of 20 mM Tris, pH 7.5, 5 mM MgCl2, 1 mM EGTA, 5 mM β-glycerophosphate, 5% glycerol (10× stock, KB002A) and 0.2 mM DTT (DS001A).
The Omnia Assay Protocol for potency assessment against JAK3 was performed in a substantially similar manner as that described in Example 251 above except that the modified JAK3-optimized reagent conditions were:
[JAK3]=5 nM, [ATP]=5 μM, [Y12-Sox]=5 μM (ATP KMapp˜5 μM).

[1] = system: B cell lymphoma cell lines; test: B cell lymphoma proliferation assay; format: cell-based
[2] = Homo sapiens, DOHH-2, DOHH2 B cell lymphoma cell line, read-out: EC50 (μM) DOHH2
[3] = Homo sapiens, WSUDLCL2, WSU-DLCL2 B cell lymphoma cell line, read-out: EC50 (μM) WSU-DLCL2
[4] = DHL4 B cell lymphoma cell line, read-out: EC50 (μM) DHL4

JAK3, sequence (P52333 whole entry): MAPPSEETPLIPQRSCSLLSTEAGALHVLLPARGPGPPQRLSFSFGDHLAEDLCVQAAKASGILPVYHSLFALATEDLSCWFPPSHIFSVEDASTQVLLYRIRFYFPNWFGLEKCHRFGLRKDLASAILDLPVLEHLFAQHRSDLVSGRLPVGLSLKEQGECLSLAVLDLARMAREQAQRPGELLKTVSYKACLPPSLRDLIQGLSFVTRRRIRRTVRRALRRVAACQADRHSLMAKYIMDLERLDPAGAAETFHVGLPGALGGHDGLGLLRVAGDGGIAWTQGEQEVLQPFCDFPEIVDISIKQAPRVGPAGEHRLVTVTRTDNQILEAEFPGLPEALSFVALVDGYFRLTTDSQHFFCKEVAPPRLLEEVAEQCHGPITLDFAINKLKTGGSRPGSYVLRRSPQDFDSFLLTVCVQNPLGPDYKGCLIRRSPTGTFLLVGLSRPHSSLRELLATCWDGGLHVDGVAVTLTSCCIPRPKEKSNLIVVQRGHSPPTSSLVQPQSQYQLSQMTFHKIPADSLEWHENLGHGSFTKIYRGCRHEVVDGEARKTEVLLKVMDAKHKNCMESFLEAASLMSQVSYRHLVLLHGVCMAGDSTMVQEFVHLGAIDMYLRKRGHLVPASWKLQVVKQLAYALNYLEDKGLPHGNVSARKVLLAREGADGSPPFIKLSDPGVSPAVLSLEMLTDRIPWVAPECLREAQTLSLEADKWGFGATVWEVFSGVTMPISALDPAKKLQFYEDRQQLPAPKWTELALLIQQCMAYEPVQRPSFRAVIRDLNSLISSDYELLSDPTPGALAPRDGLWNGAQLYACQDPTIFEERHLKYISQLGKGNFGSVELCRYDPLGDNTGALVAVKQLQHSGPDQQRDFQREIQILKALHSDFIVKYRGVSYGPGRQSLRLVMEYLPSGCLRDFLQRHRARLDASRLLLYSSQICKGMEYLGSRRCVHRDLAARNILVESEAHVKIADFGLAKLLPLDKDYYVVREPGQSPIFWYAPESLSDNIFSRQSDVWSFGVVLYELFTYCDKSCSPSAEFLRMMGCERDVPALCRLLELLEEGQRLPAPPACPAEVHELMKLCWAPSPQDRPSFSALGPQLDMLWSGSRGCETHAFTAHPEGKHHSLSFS

| IC50 (JAK3) [nM] | EC50 [1, 2] [µM] | EC50 [1, 3] [µM] | EC50 [1, 4] [µM] | SMILES |
| --- | --- | --- | --- | --- |
| < 10 |  |  |  | C=CC(=O)Nc1cccc(Nc2nccc(Nc3cccc(C)c3)n2)c1 [Compound I-1, N-(3-(4-(m-tolylamino)pyrimidin-2-ylamino)phenyl)acrylamide] |
| < 10 | 0.1 to 1 |  |  | C=CC(=O)Nc1cccc(Nc2ncc(F)c(Nc3cccc(C)c3)n2)c1 [Compound I-3, N-(3-(5-fluoro-4-(m-tolylamino)pyrimidin-2-ylamino)phenyl)acrylamide] |
| < 10 |  |  |  | C=CC(=O)Nc1cccc(Nc2ncc(C)c(Nc3ccccc3)n2)c1 [Compound I-5, N-(3-(5-methyl-4-(phenylamino)pyrimidin-2-ylamino)phenyl) acrylamide] |
| < 10 |  |  |  | C=CC(=O)Nc1ccc(C)c(Nc2ncc(C)c(Nc3cccc(C)c3)n2)c1 [Compound I-8, N-(4-methyl-3-(5-methyl-4-(m-tolylamino)pyrimidin-2-ylamino)phenyl)acrylamide] |
| < 10 |  |  |  | C=CC(=O)Nc1cccc(Nc2ncc(C)c(Nc3cccc(Br)c3)n2)c1 [Compound I-9, N-(3-(4-(3-bromophenylamino)-5-methylpyrimidin-2-ylamino)phenyl) acrylamide] |
| 10 to 100 | 1 to 10 | > 10 |  | C=CC(=O)N1CCCC(Nc2nc(Nc3ccccc3)ncc2C)C1 (stereo not drawn) [Compound I-27] |
| < 10 |  |  |  | C=CC(=O)Nc1cccc(Nc2nc(Nc3cccc(S(N)(=O)=O)c3)ncc2C)c1 [Compound I-33, N-(3-(5-methyl-2-(3-sulfamoylphenylamino)pyrimidin-4-ylamino)phenyl)acrylamide] |
| 10 to 100 |  |  |  | C=CC(=O)Nc1cccc(N(C)c2nc(Nc3ccccc3)ncc2C)c1 [Compound I-34, N-(3-(methyl(5-methyl-2-(phenylamino)pyrimidin-4-yl)amino)phenyl)acrylamide] |
| < 10 |  |  |  | C=CC(=O)Nc1cccc(Nc2nc(Nc3cccc(OCCCNC(=O)OC(C)(C)C)c3)ncc2C)c1 [Compound I-45, tert-butyl 3-(3-(4-(3-acrylamidophenylamino)-5-methylpyrimidin-2-ylamino)phenoxy)propylcarbamate] |
| 10 to 100 |  |  |  | C=CC(=O)Nc1ccc(C)c(Nc2nccc(-c3cccnc3)n2)c1 [Compound I-56, N-(4-methyl-3-(4-(pyridin-3-yl)pyrimidin-2-ylamino)phenyl)acrylamide] |
|  | 1 to 10 |  |  | C=CC(=O)Nc1cccc(Oc2nc(Nc3ccc(OC)nc3)ncc2C(=O)Nc2ccccc2)c1 [Compound I-159, 4-(3-acrylamidophenoxy)-2-(6-methoxypyridin-3-ylamino)-pyrimidine-5-carboxylic acid phenylamide] |
|  | 1 to 10 | 1 to 10 | 1 to 10 | C=CC(=O)Nc1cccc(Nc2nc(Nc3cccc(S(N)(=O)=O)c3)ncc2F)c1 [Compound I-160, N-(3-(5-fluoro-2-(3-sulfamoylphenylamino)pyrimidin-4-ylamino)phenyl)acrylamide] |
|  | 1 to 10 | 1 to 10 | 1 to 10 | C=CC(=O)N1Cc2ccc(Nc3nc(Nc4ccc(OC)nc4)ncc3F)cc2C1 [Compound I-165, 1-(5-(5-fluoro-2-(6-methoxypyridin-3-ylamino)pyrimidin-4-ylamino)isoindolin-2-yl)prop-2-en-1-one] |
|  | 1 to 10 | 1 to 10 | 1 to 10 | C=CC(=O)N1CCc2ccc(Nc3nc(Nc4ccc(OC)nc4)ncc3F)cc21 [Compound I-166, 1-(6-(5-fluoro-2-(6-methoxypyridin-3-ylamino)pyrimidin-4-ylamino)indolin-1-yl)prop-2-en-1-one] |
|  | 1 to 10 |  |  | C=CC(=O)Nc1cccc(Nc2nc(Nc3ccc(OC)nc3)ncc2C2CC2)c1 [Compound I-167, N-(3-(5-cyclopropyl-2-(6-methoxypyridin-3-ylamino)pyrimidin-4-ylamino)phenyl)acrylamide] |
|  | 1 to 10 |  |  | C=CC(=O)N1CCOc2ccc(Nc3nc(Nc4ccc(N5CCOCC5)nc4)ncc3C(C)=O)cc21 [Compound I-168, 1-{6-[5-Acetyl-2-(6-morpholin-4-yl-pyridin-3-ylamino)-pyrimidin-4-ylamino]-2,3-dihydro-benzo[1,4]oxazin-4-yl}-propenone] |
|  | 1 to 10 |  |  | C=CC(=O)N1CCOc2ccc(Nc3nc(Nc4ccc(N5CCOCC5)cc4)ncc3C(C)=O)cc21 [Compound I-169, 1-{6-[5-Acetyl-2-(4-morpholin-4-yl-phenylamino)-pyrimidin-4-ylamino]-2,3-dihydro-benzo[1,4]oxazin-4-yl}-propenone] |
|  | 1 to 10 |  |  | C=CC(=O)Nc1cccc(N(C(=O)C=C)c2nc(Nc3ccc(OC)nc3)ncc2C#N)c1 [Compound I-171, N-(3-acrylamidophenyl)-N-(5-cyano-2-(6-methoxypyridin-3-ylamino)pyrimidin-4-yl)acrylamide] |

| IC50 (JAK3) [nM] | EC50 [1, 2] [µM] | EC50 [1, 3] [µM] | EC50 [1, 4] [µM] | SMILES |
| --- | --- | --- | --- | --- |
|  | 1 to 10 |  |  | C=CC(=O)Nc1cccc(Nc2nc(Nc3ccc(OC(C)C)nc3)ncc2F)c1 [Compound I-172, N-(3-(5-fluoro-2-(6-isopropoxypyridin-3-ylamino)pyrimidin-4-ylamino)phenyl)acrylamide] |
|  | 1 to 10 |  |  | C=CC(=O)Nc1cccc(Nc2nc(Nc3ccc(OC)nc3)ncc2C#N)c1 [Compound I-173, N-(3-(5-cyano-2-(6-methoxypyridin-3-ylamino)pyrimidin-4-ylamino)phenyl)acrylamide] |
|  | 1 to 10 |  |  | C=CC(=O)Nc1cccc(Nc2nc(Nc3ccc4c(c3)NCCO4)ncc2F)c1 [Compound I-174] |
|  | 1 to 10 |  | 1 to 10 | C=CC(=O)Nc1cccc(Oc2nc(Nc3ccc(OC)nc3)ncc2C)c1 [Compound I-186, N-(3-(2-(6-methoxypyridin-3-ylamino)-5-methylpyrimidin-4-yloxy)phenyl)acrylamide] |
|  | 1 to 10 |  |  | C=CC(=O)Nc1cccc(Oc2nc(Nc3ccc(OC)nc3)ncc2C(C)=O)c1 [Compound I-188, N-{3-[5-Acetyl-2-(6-methoxy-pyridin-3-ylamino)-pyrimidin-4-yloxy]-phenyl}-acrylamide] |
|  | > 10 | > 10 | 1 to 10 | C=CC(=O)Nc1cccc(Nc2nc(Nc3ccc(OC)nc3)ncc2C(C)=O)c1 [Compound I-189, N-{3-[5-Acetyl-2-(6-methoxy-pyridin-3-ylamino)-pyrimidin-4-ylamino]-phenyl}-acrylamide] |
|  | 1 to 10 | > 10 |  | C=CC(=O)Nc1cccc(Nc2nc(Nc3ccc(OC)nc3)ncc2OC)c1 [Compound I-192, N-(3-(5-methoxy-2-(6-methoxypyridin-3-ylamino)pyrimidin-4-ylamino)phenyl)acrylamide] |
|  | 1 to 10 | 1 to 10 | 1 to 10 | C=CC(=O)N1CCOc2ccc(Nc3nc(Nc4ccc(OC)nc4)ncc3F)cc21 [Compound I-194, 1-(6-(5-fluoro-2-(6-methoxypyridin-3-ylamino)pyrimidin-4-ylamino)-2H-benzo[b][1,4]oxazin-4(3H)-yl)prop-2-en-1-one] |
|  | 1 to 10 | 1 to 10 |  | C=CC(=O)Nc1cccc(Nc2nc(Nc3cccc(OCCCn4ccnc4)c3)ncc2F)c1 [Compound I-204, N-(3-(2-(3-(3-(1H-imidazol-1-yl)propoxy)phenylamino)-5-fluoropyrimidin-4-ylamino)phenyl)acrylamide] |
|  | 1 to 10 | 1 to 10 |  | C=CC(=O)Nc1cccc(Nc2nc(Nc3cccc(OCCCN4CCOCC4)c3)ncc2F)c1 [Compound I-208, N-(3-(5-fluoro-2-(3-(3-morpholinopropoxy)phenylamino)pyrimidin-4-ylamino)phenyl)acrylamide] |
|  | > 10 | 1 to 10 |  | C=CC(=O)Nc1cccc(Nc2nc(Nc3ccc(OC)nc3)ncc2C(N)=O)c1 [Compound I-209, 4-(3-acrylamidophenylamino)-2-(6-methoxypyridin-3-ylamino)pyrimidine-5-carboxamide] |
|  | 1 to 10 | 1 to 10 |  | C=CC(=O)Nc1cccc(Nc2nc(Nc3cccc(OC)c3)ncc2C(N)=O)c1 [Compound I-210, 4-(3-acrylamidophenylamino)-2-(3-methoxyphenylamino)pyrimidine-5-carboxamide] |
|  | > 10 | > 10 |  | C=CC(=O)Nc1cccc(Oc2nc(Nc3ccc(OC)nc3)ncc2F)c1 [Compound I-217] |
| 1000 to 10000 |  |  |  | C=CC(=O)Nc1cccc(Nc2nc(NC3CCCN(C(C)=O)C3)ncc2F)c1 (stereo not drawn) [Compound I-238, N-(3-(2-(1-acetylpiperidin-3-ylamino)-5-fluoropyrimidin-4-ylamino)phenyl)acrylamide] |
| 100 to 1000 |  |  |  | C=CC(=O)Nc1cccc(Nc2nc(NCc3ccc(OC)cc3)ncc2F)c1 [Compound I-241, N-(3-(5-fluoro-2-(4-methoxybenzylamino)pyrimidin-4-ylamino)phenyl)acrylamide] |
| 100 to 1000 |  |  |  | C/C=C/C(=O)OCc1cccc(Nc2nc(Nc3ccccc3)ncc2C)c1 [Compound I-246, (E)-3-(5-methyl-2-(phenylamino)pyrimidin-4-ylamino)benzyl but-2-enoate] |
|  |  | 1 to 10 |  | C=CC(=O)Nc1cccc(Nc2nc(Nc3cccc(OCCN(CC)CC)c3)ncc2F)c1 [Compound I-298] |
| > 10000 |  |  |  | COCCOc1ccc(Nc2ncc(F)c(Nc3cccc(C(=O)C=C(C)C)c3)n2)cc1F [Compound I-323, 1-(3-(5-fluoro-2-(3-fluoro-4-(2-methoxyethoxy)phenylamino)pyrimidin-4-ylamino)phenyl)-3-methylbut-2-en-1-one] |

Source: patent US10596172B2 (Celgene CAR LLC, priority 2008, dated 2020)
